Measurements from patent publication US20260216157A1, “TETRAHYDROTHIOPHENE DERIVATIVE AND USE THEREOF IN MEDICINE” (Haisco Pharmaceutical Group Co., Ltd., priority 2023, published 2026).

Target: T1, hNav1.8 (Homo sapiens, UniProt Q9Y5Y9)
T1 construct: expressed in transfected cells; host or cells: CHO
Test: Nav1.8 manual patch clamp test
Format: cell-based
Details: CHO cells stably expressing human Nav1.8; whole-cell patch clamp, half-inactivated state; read-out: Inhibitory activity (IC50) against hNav1.8
Protocol: Nav1.8 Manual Patch Clamp Test
CHO cell lines stably expressing human Nav1.8 were cultured in a Ham's F-12 medium containing 10% fetal bovine serum, 10 μg/mL Blasticidin, 200 μg/mL Hygromycin B and 100 μg/mL Zeocin. The cells were cultured at 37° C. with a carbon dioxide concentration of 5%. The old medium was removed, and the cells were rinsed once with PBS. Then, 1 mL of 0.25%-Trypsin-EDTA solution was added, and the cells were incubated at 37° C. for approximately 1.5 min. Once the cells detached from the bottom of the dish, complete medium pre-warmed to 37° C. was added. The cell suspension was gently triturated with a pipette to dissociate the clumped cells. The cell suspension was transferred to a sterile centrifuge tube and centrifuged at 1000 rpm for 5 min to collect the cells. The cells were seeded into 6 cm cell culture dishes at a density of 2.5×10^5 cells per cell culture dish (final volume: 5 mL) for expansion or maintenance culture. To maintain the electrophysiological activity of the cells, the cell density should not exceed 80%. Before patch clamp testing, the cells were dissociated with 0.25%-Trypsin-EDTA. 6.5×10^3 cells were plated onto coverslips and cultured in 24-well plates (final volume: […]) for 18 hours before detection.
The compound was dissolved in dimethyl sulfoxide (DMSO) and prepared into a 30 mM DMSO stock solution. The stock solution was diluted with the extracellular fluid (140 mM NaCl, 3.5 mM KCl, 1 mM MgCl2·6H2O, 2 mM CaCl2·2H2O, 10 mM D-Glucose, 10 mM HEPES and 1.25 mM NaH2PO4·2H2O; adjusted to pH 7.4 with NaOH) to the test concentration, and the final DMSO concentration of all test samples was 0.1%.
(3) Electrophysiological Test
First, the recording electrodes were pulled from capillary glass tubes by using a microelectrode puller. Then, the electrodes were filled with the intracellular fluid (50 mM CsCl, 10 mM NaCl, 10 mM HEPES, 60 mM CsF and 20 mM EGTA; adjusted to pH 7.2 with CsOH) and mounted onto the microelectrode holder. Under an inverted microscope, the microelectrode manipulator was used to immerse the electrodes into the extracellular fluid, and the pipette resistance (Rpip) was recorded. The electrodes were slowly brought into contact with the cell surface, and negative pressure suction was applied to form a […]. At this point, fast capacitance compensation was performed, and negative pressure was continuously applied to break the cell membrane, forming a whole-cell recording mode. Finally, slow capacitance compensation was performed, and experimental parameters such as series resistance (Rs) were recorded. No electric leakage compensation was applied. When the Nav1.8 current in whole-cell recording was stable, drug administration was initiated, with each drug concentration for approximately 5 min (or until the current was stable). The coverslips spread with the cells were placed in a recording chamber under the inverted microscope. The blank control extracellular fluid and the test compound working solution were perfused through the recording chamber via the gravity-driven perfusion method, thereby acting on the cells, and a peristaltic pump was used to facilitate liquid exchange. The current recorded from cells in compound-free extracellular fluid was used as the control group. All electrophysiological experiments were conducted at room temperature. The inhibition rate of compounds on Nav1.8 was determined by calculating the relative percentage of peak currents generated before and after the cells were treated with the compounds.
The voltage stimulation protocol for whole-cell patch clamp recording of Nav1.8 sodium currents was described as follows. When the whole-cell sealing was formed, the cells were clamped at a voltage of −120 mV. First, the voltage was stepped from −110 mV to −30 mV in 10 mV increments and maintained for 5 s, followed by a depolarizing pulse to 0 mV to obtain a half-inactivation voltage (Vhalf). […]

T1 sequence (Q9Y5Y9 whole entry): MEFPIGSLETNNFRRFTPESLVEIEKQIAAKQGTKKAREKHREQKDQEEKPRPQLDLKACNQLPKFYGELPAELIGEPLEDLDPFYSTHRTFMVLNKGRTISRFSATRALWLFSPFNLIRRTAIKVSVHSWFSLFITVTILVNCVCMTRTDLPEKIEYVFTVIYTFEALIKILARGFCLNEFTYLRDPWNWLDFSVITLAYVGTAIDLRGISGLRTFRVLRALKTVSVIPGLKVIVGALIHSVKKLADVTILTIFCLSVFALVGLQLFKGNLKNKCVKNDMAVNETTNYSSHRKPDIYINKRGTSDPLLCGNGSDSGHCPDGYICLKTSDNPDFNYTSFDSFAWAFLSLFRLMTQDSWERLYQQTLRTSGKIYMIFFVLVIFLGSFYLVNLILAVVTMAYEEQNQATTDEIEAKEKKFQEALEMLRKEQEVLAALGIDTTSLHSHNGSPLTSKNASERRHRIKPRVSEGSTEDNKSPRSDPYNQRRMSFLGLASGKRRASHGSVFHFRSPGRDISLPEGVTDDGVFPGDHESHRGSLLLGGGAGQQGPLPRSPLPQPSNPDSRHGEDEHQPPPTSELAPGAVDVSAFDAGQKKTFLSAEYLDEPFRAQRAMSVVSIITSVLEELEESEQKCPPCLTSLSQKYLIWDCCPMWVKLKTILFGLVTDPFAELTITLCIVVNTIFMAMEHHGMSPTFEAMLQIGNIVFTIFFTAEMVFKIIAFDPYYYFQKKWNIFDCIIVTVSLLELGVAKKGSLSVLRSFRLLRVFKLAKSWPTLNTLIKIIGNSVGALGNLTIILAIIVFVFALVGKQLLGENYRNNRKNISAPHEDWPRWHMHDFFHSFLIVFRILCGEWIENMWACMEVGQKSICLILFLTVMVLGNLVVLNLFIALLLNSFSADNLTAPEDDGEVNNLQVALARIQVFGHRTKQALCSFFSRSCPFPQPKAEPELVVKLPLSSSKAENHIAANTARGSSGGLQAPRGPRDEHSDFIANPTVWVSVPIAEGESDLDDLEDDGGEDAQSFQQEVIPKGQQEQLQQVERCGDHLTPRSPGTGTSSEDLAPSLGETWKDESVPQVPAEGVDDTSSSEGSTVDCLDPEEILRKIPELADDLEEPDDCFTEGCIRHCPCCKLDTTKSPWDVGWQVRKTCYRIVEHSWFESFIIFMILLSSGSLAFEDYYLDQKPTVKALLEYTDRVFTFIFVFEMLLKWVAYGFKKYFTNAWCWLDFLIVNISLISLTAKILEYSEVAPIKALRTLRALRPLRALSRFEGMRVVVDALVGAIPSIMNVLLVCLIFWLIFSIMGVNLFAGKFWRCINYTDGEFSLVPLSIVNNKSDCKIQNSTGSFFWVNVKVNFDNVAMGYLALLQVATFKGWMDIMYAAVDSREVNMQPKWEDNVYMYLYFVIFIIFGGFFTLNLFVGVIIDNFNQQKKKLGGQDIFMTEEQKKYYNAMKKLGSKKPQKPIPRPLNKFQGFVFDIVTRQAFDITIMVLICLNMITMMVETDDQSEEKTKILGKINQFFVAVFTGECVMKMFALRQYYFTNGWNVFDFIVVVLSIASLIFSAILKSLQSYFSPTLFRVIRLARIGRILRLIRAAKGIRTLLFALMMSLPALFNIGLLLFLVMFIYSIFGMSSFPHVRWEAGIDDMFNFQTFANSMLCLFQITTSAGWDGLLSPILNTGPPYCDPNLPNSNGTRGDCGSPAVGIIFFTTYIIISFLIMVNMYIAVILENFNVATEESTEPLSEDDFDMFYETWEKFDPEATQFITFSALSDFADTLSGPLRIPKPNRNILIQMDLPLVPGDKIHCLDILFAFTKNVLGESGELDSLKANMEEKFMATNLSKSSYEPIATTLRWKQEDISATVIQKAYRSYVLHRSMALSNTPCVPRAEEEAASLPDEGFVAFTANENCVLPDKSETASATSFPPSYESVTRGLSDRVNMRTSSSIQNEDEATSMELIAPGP

Structure (SMILES) | IC50
COc1c(C2C(C(=O)Nc3ccnc(C(N)=O)c3)SC(C)(C(F)(F)F)C2C)ccc(F)c1F (single isomer, unassigned) [Compound 1-2P2] | < 10 nM
COc1c([C@@H]2C[C@](C)(C(F)(F)F)S[C@H]2C(=O)Nc2ccnc(P(C)(C)=O)c2)ccc(F)c1F [Compound 74-a] | < 1 nM
C[C@H]1[C@@H](c2ccc(F)c3c2OCC3(C)C)[C@H](C(=O)Nc2ccnc(C(N)=O)c2)S[C@@]1(C)C(F)(F)F [Mixture of compounds 76-8a and 76-8b] | < 1 nM
COc1c(C2C(C(=O)Nc3ccnc(OCC(O)CO)c3)SC(C)(C(F)(F)F)C2C)ccc(F)c1F (mixture of isomers) [Mixture of compounds 33-1a and 33-1b] | < 1 nM
COc1c([C@H]2[C@H](C(=O)Nc3cccc(P(C)(C)=O)c3)S[C@@](C)(C(F)(F)F)[C@H]2C)ccc(F)c1F [Compound 57] | < 1 nM
COc1cc(F)ccc1C1C(C(=O)Nc2ccnc(C(N)=O)c2)SC(C)(C(F)(F)F)C1C (stereo not shown) [Mixture of compounds 34-1a and 34-1b] | < 1 nM
COc1c([C@H]2[C@H](C(=O)Nc3cnc(CO)nc3)S[C@@](C)(C(F)(F)F)[C@H]2C)ccc(F)c1F [Compound 19-2a] | < 1 nM
COc1c([C@H]2[C@H](C(=O)Nc3ccc[n+]([O-])c3)S[C@@](C)(C(F)(F)F)[C@H]2C)ccc(F)c1F [Compound 20-1a] | < 1 nM
C[C@H]1[C@@H](c2ccc(F)c3c2CCC3)[C@H](C(=O)Nc2ccnc(P(C)(C)=O)c2)S[C@@]1(C)C(F)(F)F [Compound 68-b] | < 1 nM
COc1c(C2C(C(=O)Nc3ccnc(S(N)(=O)=O)c3)SC(C)(C(F)(F)F)C2C)ccc(F)c1F (stereo not shown) [Mixture of compounds 5-3a and 5-3b] | < 1 nM
COc1c([C@H]2[C@H](C(=O)Nc3ccc(F)c(CO)c3)S[C@@](C)(C(F)(F)F)[C@H]2C)ccc(F)c1F [Compound 48-1a] | < 1 nM
COc1c([C@H]2[C@H](C(=O)Nc3ccc(CO)nc3)S[C@@](C)(C(F)(F)F)[C@H]2C)ccc(F)c1F [Compound 18-2a] | < 1 nM
COc1c(C2CC(C)(C(F)(F)F)SC2C(=O)Nc2cccc(C(N)=O)c2)ccc(F)c1F (single isomer, unassigned) [Compound 32-1P1] | < 1 nM
COc1c(C2CC(C)(C(F)(F)F)SC2C(=O)Nc2cccc(C(N)=O)c2)ccc(F)c1F (single isomer, unassigned) [Compound 32-1P2] | < 1 nM
CC1C(c2ccc(F)c3c2CCC3)C(C(=O)Nc2cccc(C(N)=O)c2)SC1(C)C(F)(F)F (stereo not shown) [Mixture of compounds 37-1a and 37-1b] | < 1 nM
COc1c([C@H]2[C@H](C(=O)Nc3ccc(F)c(C(=O)O)c3)S[C@@](C)(C(F)(F)F)[C@H]2C)ccc(F)c1F [Compound 55] | < 1 nM
COc1c([C@H]2[C@H](C(=O)Nc3ccnc(CO)c3)S[C@@](C)(C(F)(F)F)[C@H]2C)ccc(F)c1F [Compound 50] | < 1 nM
COc1c(C2C(C(=O)Nc3ccc(F)c(S(C)(=O)=O)c3)SC(C)(C(F)(F)F)C2C)ccc(F)c1F (stereo not shown) [Mixture of compounds 26-1a and 26-1b] | < 1 nM
COc1c(C2C(C(=O)Nc3ccnc(C(N)=O)c3)SC(C)(C(F)(F)F)C2C)ccc(F)c1F (single isomer, unassigned) [Compound 1-2P1] | < 0.1 nM
COc1c(C2C(C(=O)Nc3ccc(CO)nc3)SC(C)(C(F)(F)F)C2C)ccc(F)c1F (stereo not shown) [Mixture of compounds 18-2a and 18-2b] | < 1 nM
COc1c([C@H]2[C@H](C(=O)Nc3cccc(S(C)(=O)=O)c3)S[C@@](C)(C(F)(F)F)[C@H]2C)ccc(F)c1F [Compound 22-1a] | < 0.1 nM
COc1c(C2C(C(=O)Nc3cnc(CO)nc3)SC(C)(C(F)(F)F)C2C)ccc(F)c1F (stereo not shown) [Mixture of compounds 19-2a and 19-2b] | < 1 nM
COc1c([C@H]2[C@H](C(=O)Nc3ccnc(P(C)(C)=O)c3)S[C@@](C)(C(F)(F)F)[C@H]2C)ccc(F)c1F [Trifluoroacetate of compound 58] | < 1 nM
COc1c(C2C(C(=O)Nc3cc[nH]c(=O)c3)SC(C)(C(F)(F)F)C2C)ccc(F)c1F (stereo not shown) [Mixture of compounds 36-2a and 36-2b] | < 0.1 nM

The next lines start with the values.

IC50 | Structure (SMILES)
< 0.1 nM | COc1c([C@H]2[C@H](C(=O)Nc3ccc(F)c(S(N)(=O)=O)c3)S[C@@](C)(C(F)(F)F)[C@H]2C)ccc(F)c1F [Compound 8-1a]
< 0.1 nM | COc1c([C@H]2[C@H](C(=O)Nc3ccc[n+]([O-])c3)S[C@@](C)(C(F)(F)F)[C@H]2C)ccc(F)c1F (racemic) [Mixture of compounds 20-1a and 20-1b]
< 0.1 nM | C[C@H]1[C@@H](c2ccc(F)c3c2CCC3)[C@H](C(=O)Nc2ccc(F)c(C(N)=O)c2)S[C@@]1(C)C(F)(F)F [Compound 61-b]
< 0.1 nM | COc1c([C@H]2[C@H](C(=O)Nc3ccc(F)c(S(C)(=O)=O)c3)S[C@@](C)(C(F)(F)F)[C@H]2C)ccc(F)c1F [Compound 26-1a]
< 0.1 nM | COc1c([C@H]2[C@H](C(=O)Nc3ccc(F)c(S(C)(=N)=O)c3)S[C@@](C)(C(F)(F)F)[C@H]2C)ccc(F)c1F (stereo partly shown)
< 0.1 nM | COc1c([C@H]2[C@H](C(=O)Nc3ccnc(S(N)(=O)=O)c3)S[C@@](C)(C(F)(F)F)[C@H]2C)ccc(F)c1F [Compound 5-3a]
< 0.1 nM | [2H]C([2H])([2H])Oc1c([C@H]2[C@H](C(=O)Nc3ccnc(C(N)=O)c3)S[C@@](C)(C(F)(F)F)[C@H]2C)ccc(F)c1F [Mixture of compounds 35-8a and 35-8b]
< 0.1 nM | C[C@H]1[C@@H](c2ccc(F)c3c2CCC3)[C@H](C(=O)Nc2ccc(F)c(S(C)(=N)=O)c2)S[C@@]1(C)C(F)(F)F (stereo partly shown) [Compound 63-b]
< 0.1 nM | COc1c([C@@H]2C[C@](C)(C(F)(F)F)S[C@H]2C(=O)Nc2ccc(F)c(C(N)=O)c2)ccc(F)c1F (single isomer, unassigned) [Compound 70-a]
< 0.1 nM | COc1c([C@@H]2C[C@](C)(C(F)(F)F)S[C@H]2C(=O)Nc2ccc(F)c(S(N)(=O)=O)c2)ccc(F)c1F [Compound 72-a]
< 0.1 nM | C[C@H]1[C@@H](c2ccc(F)c3c2CCC3)[C@H](C(=O)Nc2ccc(F)c(S(N)(=O)=O)c2)S[C@@]1(C)C(F)(F)F [Compound 59-b]
< 0.1 nM | COc1c(C2C(C(=O)Nc3ccnc(S(C)(=O)=O)c3)SC(C)(C(F)(F)F)C2C)ccc(F)c1F (stereo not shown) [Mixture of compounds 25-1a and 25-1b]
< 0.1 nM | COc1c(C2C(C(=O)Nc3ccnc(C(N)=O)c3)SC(C)(C(F)(F)F)C2C)ccc(F)c1F (stereo not shown)
< 0.1 nM | COc1c([C@H]2[C@H](C(=O)Nc3cccc(S(N)(=O)=O)c3)S[C@@](C)(C(F)(F)F)[C@H]2C)ccc(F)c1F [Compound 7-1a]
< 0.1 nM | COc1c([C@H]2[C@H](C(=O)Nc3ccnc(C(N)=O)c3)S[C@@](C)(C(F)(F)F)[C@H]2C)ccc(F)c1F [Compound 1-2a]
< 0.1 nM | C[C@H]1[C@@H](c2ccc(F)c3c2CCC3)[C@H](C(=O)Nc2ccc(F)c(S(C)(=O)=O)c2)S[C@@]1(C)C(F)(F)F [Compound 65-b]
< 0.1 nM | COc1c([C@H]2[C@H](C(=O)Nc3ccnc(S(C)(=O)=O)c3)S[C@@](C)(C(F)(F)F)[C@H]2C)ccc(F)c1F [Compound 25-1a]
< 0.1 nM | COc1c([C@H]2[C@H](C(=O)Nc3cccc(C(N)=O)c3)S[C@@](C)(C(F)(F)F)[C@H]2C)ccc(F)c1F [Mixture of compounds 28-2a and 28-2b]
< 0.1 nM | COc1c([C@H]2[C@H](C(=O)Nc3cc[nH]c(=O)c3)S[C@@](C)(C(F)(F)F)[C@H]2C)ccc(F)c1F [Compound 36-2a]
